Reference: patent US20180071242A1, “SUBSTITUTED ACYLANILIDES AND METHODS OF USE THEREOF” (University of Tennessee Research Foundation, priority 2006, published 2018)

Key:
CYP3A4 = biological target: T1, CYP3A4 (Homo sapiens, UniProt P08684); assay: CYP inhibition screening, recombinant enzyme (fluorescent-based) assay; format: in vitro ADME
T1 construct: purchased Gentest, BD Biosciences

[1] = system: DMD (−/−) UTRN (−/−) mice; assay: Double knockout mouse model of Duchenne muscular dystrophy; conditions: 10 mg/kg/day, data cumulative across the SARM groups
PR = biological target: T2, PR (Rattus norvegicus, UniProt Q63449); assay: Transient transfection luciferase transactivation assay in HEK-293 cells; format: cell-based; conditions: for PR-mediated transactivation, agonist mode (in words): all tested concentrations
T2 construct: expressed in transfected cells; host or cells: HEK-293
T2 sequence (Q63449 1-923): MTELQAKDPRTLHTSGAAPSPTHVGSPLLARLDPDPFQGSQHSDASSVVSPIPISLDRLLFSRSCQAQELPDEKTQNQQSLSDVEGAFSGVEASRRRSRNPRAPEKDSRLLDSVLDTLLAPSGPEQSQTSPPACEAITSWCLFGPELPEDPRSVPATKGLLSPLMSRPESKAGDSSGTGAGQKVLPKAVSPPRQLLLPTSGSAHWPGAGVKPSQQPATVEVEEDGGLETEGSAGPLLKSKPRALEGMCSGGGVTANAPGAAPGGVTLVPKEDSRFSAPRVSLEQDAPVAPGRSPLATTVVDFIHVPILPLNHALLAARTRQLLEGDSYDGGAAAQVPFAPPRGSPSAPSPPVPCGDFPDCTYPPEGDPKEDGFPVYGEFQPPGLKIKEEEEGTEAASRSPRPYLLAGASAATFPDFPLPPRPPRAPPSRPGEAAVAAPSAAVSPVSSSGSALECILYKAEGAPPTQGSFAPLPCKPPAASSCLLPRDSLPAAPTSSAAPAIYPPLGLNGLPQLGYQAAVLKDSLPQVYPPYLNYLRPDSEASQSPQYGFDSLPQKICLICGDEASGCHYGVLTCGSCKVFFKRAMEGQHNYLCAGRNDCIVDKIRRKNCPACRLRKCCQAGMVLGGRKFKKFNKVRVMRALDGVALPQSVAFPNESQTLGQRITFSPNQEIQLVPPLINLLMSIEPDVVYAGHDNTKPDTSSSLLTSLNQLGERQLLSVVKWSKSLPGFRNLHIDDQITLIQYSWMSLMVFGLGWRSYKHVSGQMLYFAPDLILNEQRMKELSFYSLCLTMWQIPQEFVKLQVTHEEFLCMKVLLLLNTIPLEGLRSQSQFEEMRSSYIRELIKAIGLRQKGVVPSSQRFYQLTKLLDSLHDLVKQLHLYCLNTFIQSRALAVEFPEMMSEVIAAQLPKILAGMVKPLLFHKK

[2] = system: orchidectomized (ORX) male Sprague-Dawley rats; assay: Anabolic and androgenic activity in castrated (ORX) male rats; format: in vivo, rat; conditions: for Seminal vesicles weight: castrated (ORX) rats, oral gavage; for Anabolic ratio (muscle/prostate weight): castrated rats
Method: Anabolic and androgenic efficacy of compound of formula (I) administered by daily oral gavage were tested. The S-isomer of compound (I) [S-(I)] was synthesized and tested as described herein.
The test article for this study was weighed and dissolved in 10% DMSO (Fischer) diluted with PEG 300 (Acros Organics, NJ) for preparation of the appropriate dosage concentrations. The animals were housed in groups of 2 to 3 animals per cage. Animals were randomly assigned to one of seven groups consisting of 4 to 5 animals per group. Control groups (intact and ORX) were administered vehicle daily. S-(I) was administered via oral gavage at doses of 0.01, 0.03, 0.1, 0.3, 0.75, and 1 mg/day to both intact and ORX groups. Where appropriate, animals were castrated on day one of the study. Treatment with S-(I) began nine days post ORX and was administered daily via oral gavage for fourteen days.
The animals were sacrificed under anesthesia (ketamine/xyalzine, 87:13 mg/kg) and body weights were recorded. In addition, ventral prostate, seminal vesicles, and levator ani muscle were removed, individually weighed, normalized to body weight, and expressed as a percentage of intact control. Student's T-test was used to compare individual dose groups to the intact control group. Significance was defined a priori as a P-value <0.05. Ventral prostate and seminal vesicle weights were evaluated as a measure of androgenic activity, whereas levator ani muscle weight was evaluated as a measure of anabolic activity. Blood was collected from the abdominal aorta, centrifuged, and sera were frozen at −80° C. prior to determination of serum hormone levels. Serum luteinizing hormone (LH) and follicle stimulating hormone (FSH) concentrations were determined.

ER-α = biological target: T3, ER-α (Rattus norvegicus, UniProt P06211); assay: Transient transfection luciferase transactivation assay in HEK-293 cells; format: cell-based; conditions: for ER-α transactivation, agonist mode (in words): up to the highest tested concentration (1 μM); for Inhibition of estradiol-induced ER-α activity, antagonist mode (in words): with 1 nM estradiol
T3 construct: expressed in transfected cells; host or cells: HEK-293
T3 sequence (P06211 1-600): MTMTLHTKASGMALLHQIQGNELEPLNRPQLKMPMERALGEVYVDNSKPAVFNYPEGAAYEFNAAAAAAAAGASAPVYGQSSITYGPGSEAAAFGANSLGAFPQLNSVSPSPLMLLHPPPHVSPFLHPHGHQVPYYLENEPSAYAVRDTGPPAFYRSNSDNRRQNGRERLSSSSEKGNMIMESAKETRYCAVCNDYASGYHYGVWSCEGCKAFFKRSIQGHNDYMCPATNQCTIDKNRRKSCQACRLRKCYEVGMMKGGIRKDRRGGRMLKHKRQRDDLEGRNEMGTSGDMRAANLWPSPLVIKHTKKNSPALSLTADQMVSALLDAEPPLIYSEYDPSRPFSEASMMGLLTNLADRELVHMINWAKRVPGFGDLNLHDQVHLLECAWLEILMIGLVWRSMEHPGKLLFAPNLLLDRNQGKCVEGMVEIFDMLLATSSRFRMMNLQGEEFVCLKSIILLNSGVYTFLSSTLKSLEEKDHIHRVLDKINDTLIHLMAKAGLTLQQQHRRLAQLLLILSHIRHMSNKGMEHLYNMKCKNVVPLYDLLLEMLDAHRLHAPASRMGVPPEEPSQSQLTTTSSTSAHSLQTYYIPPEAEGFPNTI

CYP2C9 = biological target: T4, CYP2C9 (Homo sapiens, UniProt P11712); assay: CYP inhibition screening, recombinant enzyme (fluorescent-based) assay; format: in vitro ADME; conditions: for Inhibition of CYP2C9 activity (in words): human, 30 min
T4 construct: purchased Gentest, BD Biosciences

[3] = 1 and 10 μM, with 1 nM progesterone

T1 sequence (P08684 whole entry): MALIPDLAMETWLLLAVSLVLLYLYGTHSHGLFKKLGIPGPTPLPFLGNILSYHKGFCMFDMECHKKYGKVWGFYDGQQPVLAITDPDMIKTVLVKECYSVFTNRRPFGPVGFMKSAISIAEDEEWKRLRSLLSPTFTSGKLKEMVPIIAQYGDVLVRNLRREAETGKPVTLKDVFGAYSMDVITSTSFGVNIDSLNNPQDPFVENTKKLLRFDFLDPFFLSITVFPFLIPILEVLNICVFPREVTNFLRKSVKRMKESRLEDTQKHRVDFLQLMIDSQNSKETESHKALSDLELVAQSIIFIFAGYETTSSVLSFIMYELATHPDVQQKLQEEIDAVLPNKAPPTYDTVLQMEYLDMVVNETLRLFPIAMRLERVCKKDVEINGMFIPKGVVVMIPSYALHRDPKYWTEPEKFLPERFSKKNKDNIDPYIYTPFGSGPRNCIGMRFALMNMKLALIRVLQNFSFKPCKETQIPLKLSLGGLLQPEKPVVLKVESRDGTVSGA
T4 sequence (P11712 whole entry): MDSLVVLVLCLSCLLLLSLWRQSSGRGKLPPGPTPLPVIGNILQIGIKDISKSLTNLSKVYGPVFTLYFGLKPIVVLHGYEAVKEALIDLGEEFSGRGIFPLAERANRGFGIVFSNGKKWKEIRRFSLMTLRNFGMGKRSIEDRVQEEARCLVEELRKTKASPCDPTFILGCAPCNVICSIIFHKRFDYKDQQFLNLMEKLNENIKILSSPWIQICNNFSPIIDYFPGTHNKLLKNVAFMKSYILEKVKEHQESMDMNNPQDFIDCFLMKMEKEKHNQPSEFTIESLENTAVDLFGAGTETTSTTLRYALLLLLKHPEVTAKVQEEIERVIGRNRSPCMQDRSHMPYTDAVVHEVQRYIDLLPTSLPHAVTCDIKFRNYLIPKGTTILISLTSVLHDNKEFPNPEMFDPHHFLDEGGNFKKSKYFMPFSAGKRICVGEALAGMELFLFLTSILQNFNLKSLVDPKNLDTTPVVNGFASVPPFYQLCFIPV

For `C[C@](O)(COc1ccc(C#N)cc1)C(=O)Nc1ccc(C#N)c(Cl)c1` [S-(I), (S)—N-(3-chloro-4-cyanophenyl)-3-(4-cyanophenoxy)-2-hydroxy-2-methylpropanamide], the IC50 (CYP3A4) was greater than 20 µM, the “Ability to be ambulatory (in words)” value [1] was “enhanced the ability of these mice to be ambulatory” and the “Deterioration of body weight (in words)” value [1] was “delayed the deterioration”. The “Deterioration of grip strength (in words)” value [1] was “delayed the deterioration”, the “Deterioration of lean mass (in words)” value [1] was “delayed the deterioration” and the “Inhibition of PR activity, antagonist mode (in words)” value (from here on “Inhibition of PR activity”) (PR; 0.1 μM and 10 μM) was “significantly partially inhibited”. The “Increase of PR transactivation, agonist mode” value (PR; 1 μM) was 3 fold, the “Inhibition of PR-mediated transactivation, antagonist mode (in words)” value (PR; 1 μM) was “completely inhibited” and the “Increase of PR transactivation, agonist mode” value (PR; 10 μM) was 8 fold. The “PR-mediated transactivation, agonist mode (in words)” value (PR) was “partial agonist activity”, the “PR antagonistic activity relative to RU486 (fold weaker)” value (PR; versus RU486) was “about 1,000 fold” and the “PR agonist potency relative to progesterone (fold weaker)” value (PR; versus endogenous agonist progesterone) was “greater than 10,000 fold”. For the same compound, the Seminal vesicles weight ([2]; 0.01 mg/day) was 10%±3%, the Seminal vesicles weight ([2]; 0.03 mg/day) was 13%±4% and the Seminal vesicles weight ([2]; 0.1 mg/day) was 21%±6%. For the same compound, the Seminal vesicles weight ([2]; 0.3 mg/day) was 43%±8%, the Seminal vesicles weight ([2]; 0.75 mg/day) was 51%±9% and the Seminal vesicles weight ([2]; 1 mg/day) was 69%±14%. For the same compound, the “Anabolic ratio (muscle/prostate weight)” value ([2]; 0.01 mg/day) was 3.02, the “Anabolic ratio (muscle/prostate weight)” value ([2]; 0.03 mg/day) was 2.13 and the “Anabolic ratio (muscle/prostate weight)” value ([2]; 0.1 mg/day) was 2.27. For the same compound, the “Anabolic ratio (muscle/prostate weight)” value ([2]; 0.3 mg/day) was 1.90, the “Anabolic ratio (muscle/prostate weight)” value ([2]; 0.75 mg/day) was 1.83 and the “Anabolic ratio (muscle/prostate weight)” value ([2]; 1 mg/day) was 1.51. The “ER-α transactivation, agonist mode (in words)” value (from here on “ER-α transactivation”) (ER-α) was “failed to activate”, the “Inhibition of estradiol-induced ER-α activity, antagonist mode (in words)” value (ER-α) was “failed to alter” and the IC50 (CYP2C9) was 5.1 µM. The “Inhibition of CYP2C9 activity (in words)” value (CYP2C9) was “did not appreciably inhibit”.
In the case of `C[C@](O)(COc1ccc(Cl)cc1)C(=O)Nc1ccc(C#N)c(C(F)(F)F)c1` [S-(II)], the IC50 (CYP3A4) is reported as greater than 20 µM, the “Inhibition of PR activity” value (PR; [3]) is reported as “significantly inhibited” and the “PR-mediated transactivation, agonist mode (in words)” value (PR) is reported as “did not induce”. For the same compound, the “ER-α transactivation” value (ER-α) was “failed to activate”, the “Inhibition of estradiol-induced ER-α activity, antagonist mode (in words)” value (ER-α) was “failed to alter” and the IC50 (CYP2C9) was 3.8 µM. For the same compound, the “Inhibition of CYP2C9 activity (in words)” value (CYP2C9) was “moderate inhibition”.
In the case of `C[C@](O)(COc1ccc(F)cc1)C(=O)Nc1ccc(C#N)c(C(F)(F)F)c1` [S-(III)], the IC50 (CYP3A4) is reported as greater than 20 µM, the “Inhibition of PR activity” value (PR; [3]) is reported as “significantly inhibited” and the “PR-mediated transactivation, agonist mode (in words)” value (PR) is reported as “did not induce”. The “ER-α transactivation” value (ER-α) was “failed to activate”, the “Inhibition of estradiol-induced ER-α activity, antagonist mode (in words)” value (ER-α) was “failed to alter” and the IC50 (CYP2C9) was 1.3 µM. The “Inhibition of CYP2C9 activity (in words)” value (CYP2C9) was “moderate inhibition”.
